Measured values as given in PubChem BioAssay (NCI).
Where “and” joins values, the source holds several entries; their conditions need not be identical. Equal values may be shown once.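 Where inhibition never reached the appropriate level, the endpoint shown equals the highest concentration tested. Otherwise, values were interpolated linearly from a five-concentration, 48-hour dose response in 96-well plates. At the GI50, growth is halved. TGI: concentration producing complete growth inhibition.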

Tests used:
Test in all cases: NCI tumour cell line growth inhibition, 48 h
DMS 114 small cell lung = tested on: DMS 114 small cell lung
KM20L2 colon = tested on: KM20L2 colon
M19-MEL melanoma = tested on: M19-MEL melanoma
SNB-78 CNS = tested on: SNB-78 CNS
XF 498 CNS = tested on: XF 498 CNS
HOP-18 NSCLC = tested on: HOP-18 NSCLC
LXFL 529 NSCLC = tested on: LXFL 529 NSCLC
MDA-N = tested on: MDA-N
RXF-631 renal = tested on: RXF-631 renal
P388 leukemia = tested on: P388 leukemia
P388/ADR leukemia = tested on: P388/ADR leukemia
SN12K1 renal = tested on: SN12K1 renal

Compound | TGI (DMS 114 small cell lung) [µM] | TGI (KM20L2 colon) | TGI (M19-MEL melanoma) [µM] | TGI (SNB-78 CNS) [µM] | TGI (XF 498 CNS) [µM] | TGI (HOP-18 NSCLC) [µM] | TGI (LXFL 529 NSCLC) [µM] | also measured
Cc1ccc(C=NC23CC4CC(CC(C4)C2)C3)cc1 | > 100 | > 100 µM | > 100 | > 100 | > 100 | – | – | –
Cc1ccccc1C(=O)Oc1ccc(OCc2ccccc2)cc1 | > 100 | > 100 µM | > 100 | > 100 | > 100 | > 100 | > 100 | –
OCC(O)C(O)C(O)c1nn(-c2ccccc2)c2nc3cc(Cl)c(Cl)cc3nc12 (centres undefined) | > 100 | > 100 µM | > 100 | > 100 | 69.3 | > 100 | > 100 | –
O=C(CNc1ccc2c(=S)c3ccccc3[nH]c2c1)Nc1ccccc1-c1ccccc1NC(=O)CNc1ccc2c(=S)c3ccccc3[nH]c2c1 | 36.6 | 47.4 µM | > 55.5 | 82.9 | 41.1 | 29.9 | 24.6 | TGI (MDA-N): > 51.3 µM
CC1(C(=O)O)CCOc2ccccc21 (centres undefined) | > 100 | > 100 µM | > 100 | > 100 | – | > 100 | > 100 | –
O=C1C(=O)N(c2nccs2)C(=O)C(=O)C1c1nc2ccccc2s1 | > 100 | > 100 µM | > 100 | > 100 | > 100 | > 100 | > 100 | –
O=C(Nc1ccc(Br)cc1)C(=O)C(C(=O)c1ccccc1F)C1OC(=O)c2ccccc21 (centres undefined) | 62.8 | > 100 µM | 42.7 | 72.6 | – | > 100 | 89.5 | TGI (RXF-631 renal): > 100 µM
CC(NC(=O)C(=O)N/N=C1\C[C@@H](c2ccccc2)Nc2ccccc21)c1ccccc1 (some centres undefined) | > 100 | > 100 µM | > 100 | > 100 | > 100 | – | > 100 | –
COc1nc2c(nc(N)n2C2OCC(O)C(O)C2O)c(=O)n1C (centres undefined) | > 100 | > 100 µM | > 100 | > 100 | > 100 | > 100 | > 100 | –
CCOC(=O)C1=C(Nc2ccc(Br)cc2)OC/C1=N\NC(=O)c1ccccc1O | – | > 100 µM | > 100 | > 79.7 | – | > 100 | > 100 | –
CCOC(=O)c1ccc(N2C(=O)Cc3ccccc3C2=O)cc1 | > 100 | > 100 µM | > 100 | > 100 | – | – | > 100 | –
CC(C)CC12CC3CCC(CNC1=O)C32C (centres undefined) | > 100 | – | > 100 | > 100 | > 100 | > 100 | > 100 | –
CC(=O)/C=C1\CC(=O)Nc2ccccc2N1 | > 100 | > 100 µM | – | > 100 | – | – | > 100 | –
OCC(CCc1c[nH]c2ccccc12)c1c[nH]c2ccccc12 (centres undefined) | – | – | – | – | – | – | – | TGI (MDA-N): 31 µM
O=C(N/C(=C\c1ccc(/C=C(\NC(=O)c2ccccc2)c2nc3ccccc3s2)cc1)c1nc2ccccc2s1)c1ccccc1 | 25.9 | 11.2 µM | 15.2 | 62.3 | – | 26 | 10.9 | TGI (RXF-631 renal): 20.6 µM
CCc1ccc2nccc(NCCCN(C)C)c2c1[N+](=O)[O-] | – | – | – | – | – | – | – | TGI (MDA-N): > 100 µM
CC(C)C(=O)[O-].CC(C)C(=O)[O-].N.N.N.N.[Co+3].[O-][Cl+3]([O-])([O-])[O-] | – | > 100 µM | – | > 100 | – | – | > 100 | GI50 (KM20L2 colon): > 100 µM; GI50 (LXFL 529 NSCLC): > 100 µM; GI50 (SNB-78 CNS): > 100 µM
CN(C)CCSCCO | – | – | – | – | – | – | – | TGI (MDA-N): > 100 µM
c1ccc(B2OCC(C3OB(c4ccccc4)OC4COB(c5ccccc5)OC43)O2)cc1 (centres undefined) | – | – | – | – | – | – | – | TGI (MDA-N): > 100 µM

Compound | TGI (DMS 114 small cell lung) [µM] | TGI (KM20L2 colon) | TGI (M19-MEL melanoma) [µM] | TGI (SNB-78 CNS) [µM] | TGI (XF 498 CNS) [µM] | TGI (HOP-18 NSCLC) [µM] | TGI (LXFL 529 NSCLC) [µM] | also measured
N#Cc1ccc(Oc2cccc(Oc3ccccc3)c2)cc1C#N | > 100 | > 100 µM | > 100 | – | – | – | > 100 | GI50 (KM20L2 colon): > 100 µM; GI50 (M19-MEL melanoma): > 100 µM; TGI (RXF-631 renal): > 100 µM
Clc1cc(-c2ccccc2)nc2ccccc12 | – | – | – | – | – | – | – | TGI (MDA-N): > 100 µM
COc1cccc(N=N/C(=N\NC(=O)c2cc(Br)ccc2O)c2ccc(N(CCC#N)CCC#N)cc2OC)c1 | – | – | – | – | – | – | – | GI50 (MDA-N): 59.3 µg/mL; TGI (MDA-N): > 150 µg/mL
COc1ccc2c(CCNC(=O)/C=C/c3ccccc3)c(C(C)=O)[nH]c2c1[N+](=O)[O-] | > 100 | > 100 µM | – | > 100 | – | – | > 100 | TGI (RXF-631 renal): 28.4 µM
O=c1cccccc1[O-].O=c1cccccc1[O-].O=c1cccccc1[O-].[Ce+3] | – | > 100 µM | – | 63.2 | – | – | – | GI50 (KM20L2 colon): 24.1 µM; GI50 (SNB-78 CNS): 15.4 µM
COc1cc(/C=C\c2ccc(Br)cc2)cc(OC)c1OC | 69.1 | – | > 100 | – | – | – | > 100 | GI50 (M19-MEL melanoma): 0.363 µM; TGI (RXF-631 renal): > 100 µM
NCc1c(C(N)=O)ncn1Cc1ccccc1 | > 100 | > 100 µM | > 100 | > 100 | > 100 | > 100 | > 100 | –
Nc1cc(S(N)(=O)=O)ccc1SSc1ccc(S(N)(=O)=O)cc1N | – | – | – | – | – | – | – | TGI (MDA-N): > 100 µM
O=C(Nc1nc2ccc([N+](=O)[O-])cc2s1)C(=O)C(C(=O)c1ccncc1)C1OC(=O)c2ccccc21 (centres undefined) | > 100 | > 100 µM | > 100 | > 100 | > 100 | > 100 | > 100 | TGI (RXF-631 renal): > 100 µM
CCn1c(=O)c2ccccc2n2c(=O)c3cc4ccccc4cc3nc12 | > 100 | > 100 µM | > 100 | > 100 | 49 | – | > 100 | –
CCOC(=O)N1C(c2ccccc2)C=CC(c2ccccc2)N1C(=O)OCC (centres undefined) | > 100 | > 100 µM | > 100 | > 100 | > 100 | > 100 | – | –
CN(CC(=O)O)Cc1oc(CO)cc(=O)c1O | – | – | – | – | – | – | – | TGI (MDA-N): > 100 µM
Cc1nc2c(N3CCCC3)nc(N3CCNCC3)nc2nc1NCc1ccccc1 | – | – | – | – | – | – | – | GI50 (MDA-N): 4.38 µM; TGI (MDA-N): 9.44 µM and 3.28 µM
CCN(CC)c1ccc(N=C2C=C(Cl)C(=O)c3ncccc32)c(C)c1 | 8.19 | 26.9 µM | 68.5 | 43.4 | 18.7 | 9.75 | – | TGI (RXF-631 renal): 35.3 µM
CS(=O)(=O)N(CCC#N)c1ccc(C=O)cc1 | > 100 | > 100 µM | > 100 | – | > 100 | – | > 100 | –
Cc1cnccc1N=Nc1ccc(N(C)C)cc1 | – | – | – | – | – | – | – | TGI (MDA-N): 69.3 µM
CC(=O)[O-].[Zn].c1ccc(/C(=N\Nc2ccccn2)c2ccccn2)cc1 | 0.0192 | 1.75 µM | 1.89 | 12.5 | – | 0.918 | 1.79 | –
CC1[C@@H]2CC=C3[C@H]4CCC5Cc6nc7c(nc6C[C@@]5(C)C4(O)CC(=O)[C@]32CO[C@]12OC(C)(C)CC2O)CC1CC[C@@H]2C3=C[C@H]4O[C@@]5(O[C@@](C)(CO)C[C@@H]5O)C(C)[C@@]4(O)[C@]3(C)[C@@H](O)CC2[C@]1(C)C7 (some centres undefined) | – | 0.0704 µM and 0.0675 µM | > 3.6 | – | 0.256 | > 3.6 | 0.000387 | GI50 (DMS 114 small cell lung): 0.000367 µM; GI50 (KM20L2 colon): 0.000664 µM and 0.00202 µM; GI50 (LXFL 529 NSCLC): 0.000139 µM; GI50 (M19-MEL melanoma): 0.329 µM and 2.05 µM; TGI (P388 leukemia): 0.00382 µM; TGI (P388/ADR leukemia): 0.379 µM; TGI (SN12K1 renal): > 3.6 µM
CC(=O)OC1CCC2C(=CCC3C2(C)C(=O)CC2(C)C(C4(C)OC(C(C)C)=CC4=O)C(O)CC32C)C1(C)C (centres undefined) | 57.8 | 51.4 µM | 47.7 | > 100 | > 100 | – | 92.1 | –
